# From patent US20260109707A1, “HETEROBIFUNCTIONAL COMPOUNDS AND METHODS OF TREATING DISEASE” (Halda Therapeutics OpCo. Inc., priority 2022, published 2026)
# Like-named read-outs stand apart in the source and are kept apart here.
# Tests used:
# [1] = system: T-Rex 293 cell line SC3 cells having increased expression of androgen receptor protein due to exposure to doxycycline; test: Cellular growth inhibition assay, T-Rex 293 SC3 cells with doxycycline (CellTiter-Glo, 72 hours); assay type: cell-based; settings: T-Rex 293 SC3 cells with increased androgen receptor expression due to doxycycline (10 ng/mL)
# Outline: (§1)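 Doxycycline (10 ng/mL) was either included or omitted to toggle wild-type androgen receptor expression in SC3 cells, a T-Rex 293 clone, grown in stripped-serum, phenol red-free medium. After 72 hours with compound, viable cells were quantified by CellTiter-Glo 2.0.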
# [2] = system: T-Rex 293 cell line SC3 cells lacking increased expression of androgen receptor protein; test: Cellular growth inhibition assay, T-Rex 293 SC3 cells without doxycycline (CellTiter-Glo, 72 hours); assay type: cell-based; settings: T-Rex 293 cell line SC3 cells not exposed to doxycycline (lacking increased androgen receptor expression)
# Outline: as §1
# T47D cells = test: Cellular growth inhibition assay for T47D cells (CellTiter-Glo, 72 hours); assay type: cell-based, human; settings: 72 hours treatment
# Outline: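 Cells are plated at 3000/well and allowed 24 h before treatment. Test compound in medium containing 0.5% DMSO is then added, with DMSO-only wells as negative control, and plates are incubated 72 h at 37 °C. ATP luminescence (CellTiter-Glo 2.0) is then fitted to four parameters to derive GI50.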
# VCaP cells = test: Cellular growth inhibition assay for VCaP cells (CellTiter-Glo, 72 hours); assay type: cell-based, human
# Outline: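 Luminescent viability signal after 72 h of compound exposure gave GI50 values by four-parameter nonlinear regression. Compounds were added in 0.5% DMSO to cells plated 24 h earlier at 5000/well in DMEM containing 10% FBS.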
Compound,"GI50 (T47D cells; Homo sapiens, T47D, 72 h) [nM]","GI50 (VCaP cells; Homo sapiens, VCaP, 72 h) [nM]",GI50 (VCaP cells) [nM],GI50 (T47D cells) [nM],GI50 ([1]; 72 h) [nM],GI50 ([2]; 72 h) [nM],GI50 [1] [nM],GI50 [2] [nM]
Cc1sc2c(c1C)C(c1ccc(CCC[C@@H]3CCCN(c4ccc(C(=O)N[C@H]5CC[C@H](Oc6ccc(C#N)c(Cl)c6)CC5)nn4)C3)cc1)=N[C@@H](C)c1nnc(C)n1-2 [I-308],500 to 1500,< 500,–,–,< 500,> 3000,–,–
CCNC(=O)C[C@@H]1N=C(c2ccc(N3CC(N4CCN(c5ccc(C(=O)N[C@H]6CC[C@H](Oc7ccc(C#N)c(Cl)c7)CC6)nn5)CC4)C3)cc2)c2c(sc(C)c2C)-n2c(C)nnc21 [I-40],500 to 1500,< 500,–,–,< 500,500 to 1500,–,–
Cc1sc2c(c1C)C(c1ccc(O[C@H]3C[C@@]4(CCCN(c5ccc(C(=O)N[C@H]6CC[C@H](Oc7ccc(C#N)c(Cl)c7)CC6)nn5)C4)C3)nc1)=N[C@@H](Cc1ncco1)c1nnc(C)n1-2 [I-220],500 to 1500,500 to 1500,–,–,< 500,> 3000,–,–
Cc1sc2c(c1C)C(c1ccc([C@H]3CCCCN3C(=O)[C@H]3CCCN(c4ccc(C(=O)N[C@H]5CC[C@H](Oc6ccc(C#N)c(Cl)c6)CC5)nn4)C3)cc1)=N[C@@H](Cc1ncco1)c1nnc(C)n1-2 [I-296],500 to 1500,< 500,–,–,< 500,> 3000,–,–
Cc1sc2c(c1C)C(c1ccc(N3CCC(CNC(=O)c4ccc(C(=O)N[C@H]5CC[C@H](Oc6ccc(C#N)c(Cl)c6)CC5)nn4)CC3)cc1)=N[C@@H](Cc1ncco1)c1nnc(C)n1-2 [I-231],500 to 1500,–,> 3000,–,–,–,> 3000,> 3000
Cc1sc2c(c1C)C(c1ccc(OC3CC4(CCN(c5ccc(C(=O)N[C@H]6CC[C@H](Oc7ccc(C#N)c(Cl)c7)CC6)nn5)CC4)C3)cc1)=NC1(CC1)c1nnc(C)n1-2 [I-417],500 to 1500,> 3000,–,–,< 500,> 3000,–,–
Cc1sc2c(c1C)C(c1ccc(CCO[C@H]3CCCN(c4ccc(C(=O)N[C@H]5CC[C@H](Oc6ccc(C#N)c(Cl)c6)CC5)nn4)C3)cc1)=N[C@@H](C)c1nnc(C)n1-2 [I-325],1500 to 3000,1500 to 3000,–,–,< 500,> 3000,–,–
Cc1sc2c(c1C)C(c1ccc(CNC(=O)[C@H]3CCCN(c4ccc(C(=O)N[C@H]5CC[C@H](Oc6ccc(C#N)c(Cl)c6)CC5)nn4)C3)cc1)=N[C@@H](Cc1ncco1)c1nnc(C)n1-2 [I-229],1500 to 3000,500 to 1500,–,–,< 500,500 to 1500,–,–
Cc1sc2c(c1C)C(c1ccc(O[C@@H]3CC[C@]4(CCCN(c5ccc(C(=O)N[C@H]6CC[C@H](Oc7ccc(C#N)c(Cl)c7)CC6)nn5)C4)C3)nc1)=N[C@@H](Cc1ncco1)c1nnc(C)n1-2 [I-284],500 to 1500,< 500,–,–,< 500,–,–,< 500
Cc1sc2c(c1C)C(c1ccc(C#CC3CC4(C3)CN(c3ccc(C(=O)N[C@H]5CC[C@H](Oc6ccc(C#N)c(Cl)c6)CC5)nn3)C4)cc1)=NCc1nnc(C)n1-2 [I-421],500 to 1500,< 500,–,–,< 500,< 500,–,–
Cc1sc2c(c1C)C(c1ccc(CN3CC(=O)N4C[C@@H](c5ccc(C(=O)N[C@H]6CC[C@H](Oc7ccc(C#N)c(Cl)c7)CC6)nn5)C[C@H]4C3=O)cc1)=N[C@@H](Cc1ncco1)c1nnc(C)n1-2 [I-346],500 to 1500,< 500,–,–,< 500,> 3000,–,–
CNc1ccc2c(n1)C(c1ccc(OC3CC4(CCN(c5ccc(C(=O)N[C@H]6CC[C@H](Oc7ccc(C#N)c(Cl)c7)CC6)nn5)CC4)C3)cc1)=NCc1onc(C)c1-2 [I-106],> 3000,< 500,–,–,< 500,> 3000,–,–
Cc1sc2c(c1C)C(c1ccc([C@H]3CC[C@@H](N4CCCN(c5ccc(C(=O)N[C@H]6CC[C@H](Oc7ccc(C#N)c(Cl)c7)CC6)nn5)CC4)CC3)cc1)=N[C@@H](Cc1ncco1)c1nnc(C)n1-2 [I-244],> 3000,> 3000,–,–,< 500,> 3000,–,–
Cc1sc2c(c1C)C(c1ccc(C(=O)N3CCC(Cc4ccc(C(=O)N[C@H]5CC[C@H](Oc6ccc(C#N)c(Cl)c6)CC5)nn4)CC3)cc1)=N[C@H](Cc1ncco1)c1nnc(C)n1-2 [I-241],500 to 1500,500 to 1500,–,–,< 500,500 to 1500,–,–
Cc1sc2c(c1C)C(c1ccc([C@H]3CC[C@]4(C3)CN(c3ccc(C(=O)N[C@H]5CC[C@H](Oc6ccc(C#N)c(Cl)c6)CC5)nn3)CCO4)cc1)=N[C@@H](Cc1ncco1)c1nnc(C)n1-2 [I-363],> 3000,> 3000,–,–,> 3000,> 3000,–,–
Cc1sc2c(c1C)C(c1ccc(C#CCC3CCN(c4ccc(C(=O)N[C@H]5CC[C@H](Oc6ccc(C#N)c(Cl)c6)CC5)nn4)CC3)cc1)=N[C@H](Cc1ncco1)c1nnc(C)n1-2 [I-137],1500 to 3000,500 to 1500,–,–,< 500,> 3000,–,–
Cc1sc2c(c1C)C(c1ccc(N3CCC4(CCCN(c5ccc(C(=O)N[C@H]6CC[C@H](Oc7ccc(C#N)c(Cl)c7)CC6)nn5)C4)CC3)cc1)=N[C@@H](C)c1nnc(C)n1-2 [I-427],–,< 500,–,500 to 1500,< 500,–,–,500 to 1500
Cc1sc2c(c1C)C(c1ccc([C@H]3C[C@@H](C[C@H]4CCCN(c5ccc(C(=O)N[C@H]6CC[C@H](Oc7ccc(C#N)c(Cl)c7)CC6)nn5)C4)C3)cc1)=N[C@@H](Cc1ncco1)c1nnc(C)n1-2 [I-356],> 3000,> 3000,–,–,> 3000,> 3000,–,–

# Now from value to molecule, other results behind:
"GI50 (T47D cells; Homo sapiens, T47D, 72 h) [nM]","GI50 (VCaP cells; Homo sapiens, VCaP, 72 h) [nM]",GI50 (VCaP cells) [nM],GI50 (T47D cells) [nM],Compound,GI50 ([1]; 72 h) [nM],GI50 ([2]; 72 h) [nM],GI50 [1] [nM],GI50 [2] [nM]
< 500,< 500,–,–,Cc1sc2c(c1C)C(c1ccc(CC(C)(C)N3CC4(CCCN(c5ccc(C(=O)N[C@H]6CC[C@H](Oc7ccc(C#N)c(Cl)c7)CC6)nn5)C4)C3)cc1)=N[C@@H](Cc1ncco1)c1nnc(C)n1-2 [I-393],< 500,1500 to 3000,–,–
< 500,< 500,–,–,Cc1sc2c(c1C)C(c1ccc(CCN3CCOC4(CCN(c5ccc(C(=O)N[C@H]6CC[C@H](Oc7ccc(C#N)c(Cl)c7)CC6)nn5)CC4)C3)cc1)=N[C@@H](Cc1ncco1)c1nnc(C)n1-2 [I-222],< 500,500 to 1500,–,–
< 500,< 500,–,–,Cc1sc2c(c1C)C(c1ccc(C[C@@H]3CCCN(c4ccc(C(=O)N[C@H]5CC[C@H](Oc6ccc(C#N)c(Cl)c6)CC5)nn4)C3)cc1)=N[C@@H](Cc1ncco1)c1nnc(C)n1-2 [I-252],< 500,< 500,–,–
< 500,500 to 1500,–,–,Cc1sc2c(c1C)C(c1ccc(-c3ccc(C4CC5(C4)CN(c4ccc(C(=O)N[C@H]6CC[C@H](Oc7ccc(C#N)c(Cl)c7)CC6)nn4)C5)cc3)cc1)=N[C@@H](Cc1ncco1)c1nnc(C)n1-2 [I-412],< 500,< 500,–,–
< 500,< 500,–,–,Cc1sc2c(c1C)C(c1ccc(O[C@@H]3CCCN(c4ccc(C(=O)N[C@H]5CC[C@H](Oc6ccc(C#N)c(Cl)c6)CC5)nn4)C3)cc1)=N[C@@H](Cc1ncco1)c1nnc(C)n1-2 [I-224],< 500,> 3000,–,–
< 500,< 500,–,–,Cc1sc2c(c1C)C(c1ccc(CCCC3CCCN(c4ccc(C(=O)N[C@H]5CC[C@H](OC6CCC(C#N)C(Cl)C6)CC5)nn4)CC3)cc1)=N[C@@H](Cc1ncco1)c1nnc(C)n1-2 (stereo partly drawn) [I-396],< 500,< 500,–,–
< 500,< 500,–,–,Cc1sc2c(c1C)C(c1ccc(OC3CC4(CCN(c5ccc(C(=O)N[C@H]6CC[C@H](Oc7ccc(C#N)c(Cl)c7)CC6)cn5)CC4)C3)cc1)=N[C@@H](Cc1ncco1)c1nnc(C)n1-2 [I-88],< 500,< 500,–,–
< 500,< 500,–,–,Cc1sc2c(c1C)C(c1ccc(N3CCN(C(=O)c4ccc(C(=O)N[C@H]5CC[C@H](Oc6ccc(C#N)c(Cl)c6)CC5)nn4)CC3)cc1)=N[C@H](Cc1ncco1)c1nnc(C)n1-2 [I-251],< 500,500 to 1500,–,–
< 500,< 500,–,–,Cc1sc2c(c1C)C(c1ccc(C[C@H]3CC[C@]4(CCCN(c5ccc(C(=O)N[C@H]6CC[C@H](Oc7ccc(C#N)c(Cl)c7)CC6)nn5)C4)C3)cc1)=N[C@@H](Cc1ncco1)c1nnc(C)n1-2 [I-124],< 500,< 500,–,–
< 500,< 500,–,–,CC1=NN=C2C1c1sc(C)c(C)c1C(c1ccc(C#CC3CCN(c4ccc(C(=O)N[C@H]5CC[C@H](Oc6ccc(C#N)c(Cl)c6)CC5)nn4)CC3)cc1)=N[C@H]2Cc1ncco1 (stereo partly drawn) [I-394],< 500,< 500,–,–
< 500,< 500,–,–,Cc1sc2c(c1C)C(c1ccc(O[C@@H]3CC[C@]4(CCCN(c5ccc(C(=O)N[C@H]6CC[C@H](Oc7ccc(C#N)c(Cl)c7)CC6)nn5)C4)C3)cn1)=N[C@@H](Cc1ncco1)c1nnc(C)n1-2 [I-360],< 500,< 500,–,–
< 500,< 500,–,–,Cc1sc2c(c1C)C(c1ccc([C@H]3C[C@H](C[C@@H]4CCCN(c5ccc(C(=O)N[C@H]6CC[C@H](Oc7ccc(C#N)c(Cl)c7)CC6)nn5)C4)C3)cc1)=N[C@@H](Cc1ncco1)c1nnc(C)n1-2 [I-357],< 500,< 500,–,–
